Measurements as given in the supplement of paper PMC11061612.

Assays:
Experiment in all cases: combination Emax (second highest fraction inhibited in the dose matrix, 72 h); higher = more inhibition; extreme values may be limits of the assay
[1] = system: NCI-H322M (Lung Adenocarcinoma)
How it was run: (§1)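 Bliss excess equals the observed combination effect minus the expected value EA + EB − EA·EB, where EA and EB are the effects of each agent alone. Combination Emax is the second-highest inhibition within the matrix. Inhibition was scaled from CellTiter-Glo 2.0 luminescence, with 0 set by vehicle wells and 1 by blank wells, after 72 hours of two-drug dosing of cells plated in 1536-well plates.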

[2] = system: LOU-NH91 (Squamous Cell Lung Carcinoma)
How it was run: as §1

RPMI-7951 (Melanoma) = system: RPMI-7951 (Melanoma)
How it was run: as §1

BT-20 (Breast Carcinoma) = system: BT-20 (Breast Carcinoma)
How it was run: as §1

EW-18 (Ewing's Sarcoma) = system: EW-18 (Ewing's Sarcoma)
How it was run: as §1

[3] = system: TGBC11TKB (Gastric Carcinoma)
How it was run: as §1

GOTO (Neuroblastoma) = system: GOTO (Neuroblastoma)
How it was run: as §1

[4] = system: OCUM-1 (Gastric Carcinoma)
How it was run: as §1

[5] = system: PF-382 (T-Lymphoblastic Leukemia)
How it was run: as §1

[6] = system: HSC-2 (Oral Cavity Carcinoma)
How it was run: as §1

[7] = system: MFE-319 (Endometrial Carcinoma)
How it was run: as §1

[8] = system: ASH-3 (Thyroid Gland Carcinoma)
How it was run: as §1

[9] = system: OVISE (Ovarian Carcinoma)
How it was run: as §1

[10] = system: SCC-3 (B-Cell Non-Hodgkin's Lymphoma)
How it was run: as §1

[11] = system: JHH-7 (Hepatocellular Carcinoma)
How it was run: as §1

[12] = system: NCI-H2405 (Lung Adenocarcinoma)
How it was run: as §1

NB7 (Neuroblastoma) = system: NB7 (Neuroblastoma)
How it was run: as §1

[13] = system: KU-19-19 (Bladder Carcinoma)
How it was run: as §1

[14] = system: NCI-H2347 (Lung Adenocarcinoma)
How it was run: as §1

[15] = system: NCI-N87 (Gastric Carcinoma)
How it was run: as §1

Row | SMILES | combination Emax [1] | combination Emax [2] | combination Emax (RPMI-7951 (Melanoma)) | combination Emax (BT-20 (Breast Carcinoma)) | combination Emax (EW-18 (Ewing's Sarcoma)) | combination Emax [3] | combination Emax (GOTO (Neuroblastoma)) | combination Emax [4] | combination Emax [5] | combination Emax [6] | combination Emax [7] | combination Emax [8] | combination Emax [9] | combination Emax [10] | combination Emax [11] | combination Emax [12] | combination Emax (NB7 (Neuroblastoma)) | combination Emax [13] | combination Emax [14] | combination Emax [15]
1 | Cc1cc2ncnn2cc1Nc1ncc2c(n1)n(C1CCOCC1)c(=O)n2C [AZD7648] + C=CCn1c(=O)c2cnc(Nc3ccc(N4CCN(C)CC4)cc3)nc2n1-c1cccc(C(C)(C)O)n1 [AZD1775] (first compound max 10 µM, partner max 1 µM) | 0.923 | 0.466 | 0.704 | 0.559 | 0.553 | 0.825 | 0.783 | 0.384 | 0.957 | 0.596 | 0.68 | 0.324 | 0.635 | 0.815 | 0.392 | 0.192 | 0.575 | 0.749 | 0.359 | 0.731
2 | Cc1cc2ncnn2cc1Nc1ncc2c(n1)n(C1CCOCC1)c(=O)n2C [AZD7648] + CCN(CCO)CCCOc1ccc2c(Nc3cc(CC(=O)Nc4cccc(F)c4)[nH]n3)ncnc2c1 [AZD2811] (first compound max 10 µM, 7x7, partner max 1 µM) | 0.352 | 0.37 | 0.476 | 0.426 | 0.68 | 0.327 | 0.491 | 0.369 | 0.851 | 0.547 | 0.278 | 0.324 | 0.308 | 0.338 | 0.296 | 0.188 | 0.406 | 0.489 | 0.302 | 0.44
3 | Cc1cc2ncnn2cc1Nc1ncc2c(n1)n(C1CCOCC1)c(=O)n2C [AZD7648] + CN(C)CCCOc1ccc(-c2ccc3ncc4c(c3c2)n(C2CCOCC2)c(=O)n4C)cn1 [AZD0156] (first compound max 10 µM, 7x7, partner max 1 µM) | 0.368 | 0.279 | 0.396 | 0.413 | 0.391 | 0.247 | 0.163 | 0.211 | 0.478 | 0.398 | 0.311 | 0.332 | 0.366 | 0.299 | 0.177 | 0.183 | 0.213 | 0.212 | 0.336 | 0.477
4 | Cc1cc2ncnn2cc1Nc1ncc2c(n1)n(C1CCOCC1)c(=O)n2C [AZD7648] + C[C@@H]1COCCN1C2=NC(=NC(=C2)C3(CC3)[S@](=N)(=O)C)C4=C5C=CNC5=NC=C4 [AZD6738] (first compound max 10 µM, 7x7, partner max 10 µM) | 0.944 | 0.295 | 0.912 | 0.479 | 0.636 | 0.861 | 0.889 | 0.719 | 0.858 | 0.596 | 0.726 | 0.509 | 0.666 | 0.857 | 0.369 | 0.241 | 0.572 | 0.782 | 0.401 | 0.718
5 | Cc1cc2ncnn2cc1Nc1ncc2c(n1)n(C1CCOCC1)c(=O)n2C [AZD7648] + O=C(c1cc(Cc2n[nH]c(=O)c3ccccc23)ccc1F)N1CCN(C(=O)C2CC2)CC1 [Olaparib] (first compound max 10 µM, 7x7, partner max 10 µM) | 0.325 | 0.186 | 0.303 | 0.313 | 0.369 | 0.269 | 0.525 | 0.186 | 0.49 | 0.228 | 0.118 | 0.321 | 0.19 | 0.435 | 0.159 | 0.093 | 0.219 | 0.251 | 0.224 | 0.301
6 | NC1(C(=O)N[C@@H](CCO)c2ccc(Cl)cc2)CCN(c2ncnc3[nH]ccc23)CC1 [Capivasertib] + CC(=O)c1c(C)c2cnc(Nc3ccc(N4CCNCC4)cn3)nc2n(C2CCCC2)c1=O [Palbociclib] (first compound max 10 µM, 7x7, partner max 10 µM) | 0.639 | 0.5 | 0.854 | 0.81 | 0.807 | 0.166 | 0.81 | 0.582 | 0.743 | 0.582 | 0.611 | 0.581 | 0.467 | 0.479 | 0.302 | 0.612 | 0.689 | 0.536 | 0.271 | 0.76
7 | NC1(C(=O)N[C@@H](CCO)c2ccc(Cl)cc2)CCN(c2ncnc3[nH]ccc23)CC1 [Capivasertib] + CC(C)n1c(=O)n(C)c2cnc3cc(F)c(-c4ccc(OCCCN5CCCCC5)nc4)cc3c21 [AZD1390] (first compound max 10 µM, 7x7, partner max 0.3 µM) | 0.313 | 0.456 | 0.662 | 0.733 | 0.596 | 0.13 | 0.433 | 0.571 | 0.612 | 0.447 | 0.368 | 0.384 | 0.387 | 0.216 | 0.315 | 0.274 | 0.736 | 0.266 | 0.196 | 0.674
8 | NC1(C(=O)N[C@@H](CCO)c2ccc(Cl)cc2)CCN(c2ncnc3[nH]ccc23)CC1 [Capivasertib] + CCN(CCO)CCCOc1ccc2c(Nc3cc(CC(=O)Nc4cccc(F)c4)[nH]n3)ncnc2c1 [AZD2811] (first compound max 10 µM, 7x7, partner max 1 µM) | 0.338 | 0.519 | 0.766 | 0.765 | 0.811 | 0.244 | 0.793 | 0.683 | 0.916 | 0.707 | 0.423 | 0.451 | 0.41 | 0.309 | 0.294 | 0.329 | 0.613 | 0.515 | 0.231 | 0.73
9 | NC1(C(=O)N[C@@H](CCO)c2ccc(Cl)cc2)CCN(c2ncnc3[nH]ccc23)CC1 [Capivasertib] + COc1nnc2ccc(N3CCC(c4ccc(OCCN5CCN(C)C(=O)[C@H]5C)cc4)CC3)nn12 [AZD5153] (first compound max 10 µM, 7x7, partner max 1 µM) | 0.615 | 0.656 | 0.865 | 0.813 | 0.787 | 0.253 | 0.802 | 0.596 | 1 | 0.874 | 0.962 | 0.831 | 0.526 | 0.827 | 0.311 | 0.481 | 0.762 | 0.746 | 0.314 | 0.772
10 | NC1(C(=O)N[C@@H](CCO)c2ccc(Cl)cc2)CCN(c2ncnc3[nH]ccc23)CC1 [Capivasertib] + C[C@@H]1COCCN1C2=NC(=NC(=C2)C3(CC3)[S@](=N)(=O)C)C4=C5C=CNC5=NC=C4 [AZD6738] (first compound max 10 µM, 7x7, partner max 10 µM) | 0.81 | 0.569 | 0.892 | 0.771 | 0.811 | 0.778 | 0.948 | 0.774 | 0.974 | 0.701 | 0.787 | 0.697 | 0.694 | 0.938 | 0.39 | 0.477 | 0.635 | 0.69 | 0.327 | 0.781
11 | NC1(C(=O)N[C@@H](CCO)c2ccc(Cl)cc2)CCN(c2ncnc3[nH]ccc23)CC1 [Capivasertib] + Cn1cnc2c(F)c(Nc3ccc(Br)cc3Cl)c(C(=O)NOCCO)cc21 [Selumetinib] (first compound max 10 µM, 7x7, partner max 10 µM) | 0.582 | 0.487 | 0.793 | 0.809 | 0.656 | 0.462 | 0.469 | 0.937 | 0.764 | 0.721 | 0.644 | 0.773 | 0.454 | 0.363 | 0.418 | 0.573 | 0.28 | 0.921 | 0.423 | 0.755
12 | Cc1nc(Nc2ncc(C(=O)Nc3c(C)cccc3Cl)s2)cc(N2CCN(CCO)CC2)n1 [Dasatinib] + CC(=O)Nc1cccc(-n2c(=O)n(C3CC3)c(=O)c3c(Nc4ccc(I)cc4F)n(C)c(=O)c(C)c32)c1 [Trametinib] (first compound max 2 µM, 7x7, partner max 1 µM) | 0.721 | 0.674 | 0.87 | 0.68 | 0.13 | 0.492 | 0.398 | 0.988 | 0.991 | 0.804 | 0.368 | 0.855 | 0.828 | 0.358 | 0.306 | 0.712 | 0.65 | 1 | 0.716 | 0.764
13 | COc1cccc2c1C(=O)c1c(O)c3c(c(O)c1C2=O)C[C@@](O)(C(=O)CO)C[C@@H]3O[C@H]1C[C@H](N)[C@H](O)[C@H](C)O1 [Doxorubicin] + Cc1cc2ncnn2cc1Nc1ncc2c(n1)n(C1CCOCC1)c(=O)n2C [AZD7648] (first compound max 1 µM, 7x7, partner max 10 µM) | 0.792 | 0.782 | 0.957 | 0.769 | 0.754 | 0.203 | 0.816 | 0.596 | 0.989 | 0.89 | 0.552 | 0.912 | 0.554 | 0.978 | 0.411 | 0.201 | 0.826 | 0.814 | 0.253 | 0.726
